Active and inactive are the calls of the source. The calls are words filed in the database; no cut-off is given here.
What was measured:
Type in all cases: functional, cell-based
[1] = molecular target: T1, Taste receptor type 2 member 30 (Homo sapiens) (UniProt P59541); test: Antagonist activity at recombinant human N-terminal rat ST3 receptor-fused TAS2R47 expressed in HEK293T cells co-expressing Galpha16gust44 assessed as inhibition of brucine-induced intracellular calcium level at 100 uM by FLIPR assay
T1 sequence (whole entry): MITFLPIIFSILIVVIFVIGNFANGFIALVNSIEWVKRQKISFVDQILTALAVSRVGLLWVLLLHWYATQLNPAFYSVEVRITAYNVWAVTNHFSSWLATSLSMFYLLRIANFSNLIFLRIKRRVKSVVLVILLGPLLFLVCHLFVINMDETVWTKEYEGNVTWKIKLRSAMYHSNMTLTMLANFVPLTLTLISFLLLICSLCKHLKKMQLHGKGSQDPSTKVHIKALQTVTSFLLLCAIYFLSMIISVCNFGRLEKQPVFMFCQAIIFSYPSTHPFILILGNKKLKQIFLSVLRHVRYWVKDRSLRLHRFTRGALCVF

[2] = molecular target: Taste receptor type 2 member 40 (Homo sapiens) (UniProt P59535); test: Antagonist activity at recombinant human N-terminal rat ST3 receptor-fused TAS2R40 expressed in HEK293T cells co-expressing Galpha16gust44 assessed as inhibition of cohumulone-induced intracellular calcium level at 100 uM by FLIPR assay
HEK-293T = test: Effect on intracellular calcium level in mock-transfected HEK293T cells at 100 uM FLIPR assay; settings: Homo sapiens
[3] = molecular target: T2, Taste receptor type 2 member 16 (Homo sapiens) (UniProt Q9NYV7); test: Antagonist activity at recombinant human N-terminal rat ST3 receptor-fused TAS2R16 expressed in HEK293T cells co-expressing Galpha16gust44 assessed as inhibition of D-salicin-induced increase in intracellular calcium level at 100 uM by FLIPR assay
T2 sequence (whole entry): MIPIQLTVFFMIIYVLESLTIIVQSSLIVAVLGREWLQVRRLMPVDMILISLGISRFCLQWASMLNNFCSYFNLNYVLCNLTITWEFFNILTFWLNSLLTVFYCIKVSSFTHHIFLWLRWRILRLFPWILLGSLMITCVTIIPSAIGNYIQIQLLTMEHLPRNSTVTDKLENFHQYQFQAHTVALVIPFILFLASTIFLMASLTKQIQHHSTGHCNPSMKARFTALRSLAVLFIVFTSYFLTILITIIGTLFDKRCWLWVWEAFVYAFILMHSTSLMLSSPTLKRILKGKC

[4] = molecular target: T3, Taste receptor type 2 member 3 (Homo sapiens) (UniProt Q9NYW6); test: Antagonist activity at recombinant human N-terminal rat ST3 receptor-fused TAS2R3 expressed in HEK293T cells co-expressing Galpha16gust44 assessed as inhibition of chloroquine-induced increase in intracellular calcium level at 100 uM by FLIPR assay
T3 sequence (whole entry): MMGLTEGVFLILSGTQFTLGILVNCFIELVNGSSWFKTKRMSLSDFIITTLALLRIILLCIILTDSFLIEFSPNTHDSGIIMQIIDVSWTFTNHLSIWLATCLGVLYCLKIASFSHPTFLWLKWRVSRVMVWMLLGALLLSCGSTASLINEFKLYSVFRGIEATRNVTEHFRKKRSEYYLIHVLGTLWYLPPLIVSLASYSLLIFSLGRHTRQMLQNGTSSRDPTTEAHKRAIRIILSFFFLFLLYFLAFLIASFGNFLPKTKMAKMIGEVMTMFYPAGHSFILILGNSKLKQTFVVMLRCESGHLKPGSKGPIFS

[5] = molecular target: T4, Taste receptor type 2 member 9 (Homo sapiens) (UniProt Q9NYW1); test: Antagonist activity at recombinant human N-terminal rat ST3 receptor-fused TAS2R9 expressed in HEK293T cells co-expressing Galpha16gust44 assessed as inhibition of ofloxacin-induced increase in intracellular calcium level at 100 uM by FLIPR assay
T4 sequence (whole entry): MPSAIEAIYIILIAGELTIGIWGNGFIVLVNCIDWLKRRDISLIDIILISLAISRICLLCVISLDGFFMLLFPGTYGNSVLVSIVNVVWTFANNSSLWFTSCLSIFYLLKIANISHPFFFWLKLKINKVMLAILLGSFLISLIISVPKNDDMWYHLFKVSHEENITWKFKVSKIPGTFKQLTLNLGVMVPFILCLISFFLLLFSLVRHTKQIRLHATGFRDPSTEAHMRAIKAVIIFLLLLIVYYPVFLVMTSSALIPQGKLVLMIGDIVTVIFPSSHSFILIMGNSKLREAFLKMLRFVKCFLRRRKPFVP

[6] = molecular target: T5, Taste receptor type 2 member 4 (Homo sapiens) (UniProt Q9NYW5); test: Antagonist activity at recombinant human N-terminal rat ST3 receptor-fused TAS2R4 expressed in HEK293T cells co-expressing Galpha16gust44 assessed as inhibition of colchicine-induced increase in intracellular calcium level at 100 uM by FLIPR assay
T5 sequence (whole entry): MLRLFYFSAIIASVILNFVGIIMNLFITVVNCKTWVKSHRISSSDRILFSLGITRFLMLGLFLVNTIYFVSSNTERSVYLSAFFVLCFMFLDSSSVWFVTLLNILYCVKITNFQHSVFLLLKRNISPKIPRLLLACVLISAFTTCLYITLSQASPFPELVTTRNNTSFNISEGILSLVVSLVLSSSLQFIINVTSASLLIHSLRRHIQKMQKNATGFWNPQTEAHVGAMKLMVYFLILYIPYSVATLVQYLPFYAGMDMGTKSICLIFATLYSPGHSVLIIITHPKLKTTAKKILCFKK

[7] = molecular target: T6, Taste receptor type 2 member 39 (Homo sapiens) (UniProt P59534); test: Antagonist activity at recombinant human N-terminal rat ST3 receptor-fused TAS2R39 expressed in HEK293T cells co-expressing Galpha16gust44 assessed as inhibition of epigallocatechin galiate-induced increase in intracellular calcium level at 100 uM by FLIPR assay
T6 sequence (whole entry): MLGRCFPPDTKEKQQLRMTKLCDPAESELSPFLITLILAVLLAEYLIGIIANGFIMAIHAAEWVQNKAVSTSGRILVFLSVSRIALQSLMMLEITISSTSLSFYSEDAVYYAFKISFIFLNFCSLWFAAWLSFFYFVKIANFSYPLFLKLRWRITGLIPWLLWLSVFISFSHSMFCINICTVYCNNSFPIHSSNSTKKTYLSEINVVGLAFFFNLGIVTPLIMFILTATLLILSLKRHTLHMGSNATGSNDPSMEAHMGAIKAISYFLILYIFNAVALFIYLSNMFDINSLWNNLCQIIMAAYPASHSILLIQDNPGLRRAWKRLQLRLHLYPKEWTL

Sequence of Taste receptor type 2 member 40 (Homo sapiens) (P59535 whole entry, the tested form may be a part): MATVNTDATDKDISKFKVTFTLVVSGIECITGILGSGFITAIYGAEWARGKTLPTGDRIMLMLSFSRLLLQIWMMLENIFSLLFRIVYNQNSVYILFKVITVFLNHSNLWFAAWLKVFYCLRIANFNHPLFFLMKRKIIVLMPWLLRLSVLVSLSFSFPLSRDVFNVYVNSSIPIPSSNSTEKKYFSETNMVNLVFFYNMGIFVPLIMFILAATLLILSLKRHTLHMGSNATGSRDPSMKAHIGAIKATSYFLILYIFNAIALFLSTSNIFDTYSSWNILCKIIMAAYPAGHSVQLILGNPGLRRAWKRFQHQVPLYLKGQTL

| Structure (SMILES) | inhibition [1] | inhibition [2] | Activity (HEK-293T) | inhibition [3] | inhibition [4] | inhibition [5] | inhibition [6] | inhibition [7] |
| --- | --- | --- | --- | --- | --- | --- | --- | --- |
| C/C1=C\C[C@H](O)[C@@H](C)C[C@H]2OC(=O)[C@@H](C)[C@@H]2CC1 | Active | Active | inactive | inactive | inactive | inactive | inactive | inactive |
| C/C1=C\C[C@H](O)/C(C)=C/[C@H]2OC(=O)[C@@H](C)[C@@H]2CC1 | Active | Active | inactive | inactive | inactive | inactive | inactive | inactive |

— ChEMBL document CHEMBL4418912, “Methods of identifying antagonists of the hTAS2R46 bitter taste receptor” (2014)
